Data as given in PubChem BioAssay (NCI).
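Tested at 5 concentrations; 48 h exposure; 96-well plates; endpoints linearly interpolated, else capped at highest concentration. TGI: total growth inhibition.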

These compounds were tested on NCI-H226 lung (assay: growth of human tumour cells (NCI), 48 h).

Structure (SMILES)	TGI
C/C(CCn1[nH]c(=O)ccc1=O)=N\NC(=O)C(=O)NN	> 100 µM
Cc1ccc(-c2csc(=Nc3ccccc3)n2NC(=O)c2ccncc2)cc1	> 75.2 µM

Each compound was assayed on NCI-H23 lung (assay: growth of human tumour cells (NCI), 48 h).

Structure (SMILES)	TGI
O=C(/C=C/c1ccccc1)C[C@@H](O)C[C@@H]1CC=CC(=O)O1	28.6 µM
N#C/C(=C1/Sc2c(nc[nH]c2=O)N1c1ccccc1)c1nc2ccccc2[nH]1	> 100 µM
C=CC[C@H](C[C@H](C[C@H](C[C@H](C[C@H](C[C@H](C[C@H](C[C@H](C[C@H](C[C@H](CCCCC)OC)OC)OC)OC)OC)OC)OC)OC)OC)OC	> 100 µM
NC1(c2cc3ccccc3s2)CCCC1	> 100 µM
C/C(CCn1[nH]c(=O)ccc1=O)=N\NC(=O)C(=O)NN	> 100 µM
Cc1ccc(-c2csc(=Nc3ccccc3)n2NC(=O)c2ccncc2)cc1	> 76.1 µM

What follows are compounds tested on NCI-H460 lung (assay: growth of human tumour cells (NCI), 48 h).

Structure (SMILES)	TGI
O=C(/C=C/c1ccccc1)C[C@@H](O)C[C@@H]1CC=CC(=O)O1	39.5 µM
Cc1ccc(/C=C/C(=O)c2cccc3ccccc23)cc1	30.7 µM
N#C/C(=C1/Sc2c(nc[nH]c2=O)N1c1ccccc1)c1nc2ccccc2[nH]1	> 100 µM
C=CC[C@H](C[C@H](C[C@H](C[C@H](C[C@H](C[C@H](C[C@H](C[C@H](C[C@H](C[C@H](CCCCC)OC)OC)OC)OC)OC)OC)OC)OC)OC)OC	> 100 µM
NC1(c2cc3ccccc3s2)CCCC1	> 100 µM
C/C(CCn1[nH]c(=O)ccc1=O)=N\NC(=O)C(=O)NN	> 100 µM
Cc1ccc(-c2csc(=Nc3ccccc3)n2NC(=O)c2ccncc2)cc1	> 100 µM

The compounds below were run on NCI-H522 lung (assay: growth of human tumour cells (NCI), 48 h).

Structure (SMILES)	TGI
O=C(/C=C/c1ccccc1)C[C@@H](O)C[C@@H]1CC=CC(=O)O1	6.9 µM
Cc1ccc(/C=C/C(=O)c2cccc3ccccc23)cc1	34.2 µM
N#C/C(=C1/Sc2c(nc[nH]c2=O)N1c1ccccc1)c1nc2ccccc2[nH]1	> 100 µM
C=CC[C@H](C[C@H](C[C@H](C[C@H](C[C@H](C[C@H](C[C@H](C[C@H](C[C@H](C[C@H](CCCCC)OC)OC)OC)OC)OC)OC)OC)OC)OC)OC	> 100 µM
NC1(c2cc3ccccc3s2)CCCC1	> 100 µM
C/C(CCn1[nH]c(=O)ccc1=O)=N\NC(=O)C(=O)NN	> 100 µM

The compounds below were run on NCI/ADR-RES ovarian (assay: growth of human tumour cells (NCI), 48 h).

Structure (SMILES)	TGI
O=C(/C=C/c1ccccc1)C[C@@H](O)C[C@@H]1CC=CC(=O)O1	> 85.5 µM
NC1(c2cc3ccccc3s2)CCCC1	> 100 µM
Cc1ccc(-c2csc(=Nc3ccccc3)n2NC(=O)c2ccncc2)cc1	> 90.5 µM

What follows are compounds tested on OVCAR-3 ovarian (assay: growth of human tumour cells (NCI), 48 h).

Structure (SMILES)	TGI
O=C(/C=C/c1ccccc1)C[C@@H](O)C[C@@H]1CC=CC(=O)O1	13.3 µM
Cc1ccc(/C=C/C(=O)c2cccc3ccccc23)cc1	31.7 µM
N#C/C(=C1/Sc2c(nc[nH]c2=O)N1c1ccccc1)c1nc2ccccc2[nH]1	> 100 µM
C=CC[C@H](C[C@H](C[C@H](C[C@H](C[C@H](C[C@H](C[C@H](C[C@H](C[C@H](C[C@H](CCCCC)OC)OC)OC)OC)OC)OC)OC)OC)OC)OC	> 100 µM
NC1(c2cc3ccccc3s2)CCCC1	> 100 µM
C/C(CCn1[nH]c(=O)ccc1=O)=N\NC(=O)C(=O)NN	> 100 µM
Cc1ccc(-c2csc(=Nc3ccccc3)n2NC(=O)c2ccncc2)cc1	> 100 µM

These compounds were tested on OVCAR-4 ovarian (assay: growth of human tumour cells (NCI), 48 h).

Structure (SMILES)	TGI
O=C(/C=C/c1ccccc1)C[C@@H](O)C[C@@H]1CC=CC(=O)O1	45.7 µM
Cc1ccc(/C=C/C(=O)c2cccc3ccccc23)cc1	28 µM
N#C/C(=C1/Sc2c(nc[nH]c2=O)N1c1ccccc1)c1nc2ccccc2[nH]1	> 100 µM
C=CC[C@H](C[C@H](C[C@H](C[C@H](C[C@H](C[C@H](C[C@H](C[C@H](C[C@H](C[C@H](CCCCC)OC)OC)OC)OC)OC)OC)OC)OC)OC)OC	> 100 µM
NC1(c2cc3ccccc3s2)CCCC1	> 100 µM
C/C(CCn1[nH]c(=O)ccc1=O)=N\NC(=O)C(=O)NN	> 100 µM
Cc1ccc(-c2csc(=Nc3ccccc3)n2NC(=O)c2ccncc2)cc1	> 100 µM

These compounds were tested on OVCAR-5 ovarian (assay: growth of human tumour cells (NCI), 48 h).

Structure (SMILES)	TGI
O=C(/C=C/c1ccccc1)C[C@@H](O)C[C@@H]1CC=CC(=O)O1	36.4 µM
Cc1ccc(/C=C/C(=O)c2cccc3ccccc23)cc1	27.5 µM
N#C/C(=C1/Sc2c(nc[nH]c2=O)N1c1ccccc1)c1nc2ccccc2[nH]1	> 100 µM
C=CC[C@H](C[C@H](C[C@H](C[C@H](C[C@H](C[C@H](C[C@H](C[C@H](C[C@H](C[C@H](CCCCC)OC)OC)OC)OC)OC)OC)OC)OC)OC)OC	> 100 µM
NC1(c2cc3ccccc3s2)CCCC1	> 100 µM
C/C(CCn1[nH]c(=O)ccc1=O)=N\NC(=O)C(=O)NN	> 100 µM
Cc1ccc(-c2csc(=Nc3ccccc3)n2NC(=O)c2ccncc2)cc1	> 100 µM

The compounds below were run on OVCAR-8 ovarian (assay: growth of human tumour cells (NCI), 48 h).

Structure (SMILES)	TGI
O=C(/C=C/c1ccccc1)C[C@@H](O)C[C@@H]1CC=CC(=O)O1	18.9 µM
Cc1ccc(/C=C/C(=O)c2cccc3ccccc23)cc1	29 µM
N#C/C(=C1/Sc2c(nc[nH]c2=O)N1c1ccccc1)c1nc2ccccc2[nH]1	> 100 µM
C=CC[C@H](C[C@H](C[C@H](C[C@H](C[C@H](C[C@H](C[C@H](C[C@H](C[C@H](C[C@H](CCCCC)OC)OC)OC)OC)OC)OC)OC)OC)OC)OC	> 100 µM
NC1(c2cc3ccccc3s2)CCCC1	> 100 µM
C/C(CCn1[nH]c(=O)ccc1=O)=N\NC(=O)C(=O)NN	> 100 µM
Cc1ccc(-c2csc(=Nc3ccccc3)n2NC(=O)c2ccncc2)cc1	> 90.9 µM

The compounds below were run on PC-3 prostate (assay: growth of human tumour cells (NCI), 48 h).

Structure (SMILES)	TGI
O=C(/C=C/c1ccccc1)C[C@@H](O)C[C@@H]1CC=CC(=O)O1	31.8 µM
NC1(c2cc3ccccc3s2)CCCC1	81.4 µM
Cc1ccc(-c2csc(=Nc3ccccc3)n2NC(=O)c2ccncc2)cc1	> 100 µM

The compounds below were run on RPMI-8226 leukemia (assay: growth of human tumour cells (NCI), 48 h).

Structure (SMILES)	TGI
O=C(/C=C/c1ccccc1)C[C@@H](O)C[C@@H]1CC=CC(=O)O1	> 24.5 µM
Cc1ccc(/C=C/C(=O)c2cccc3ccccc23)cc1	> 100 µM
N#C/C(=C1/Sc2c(nc[nH]c2=O)N1c1ccccc1)c1nc2ccccc2[nH]1	> 100 µM
C=CC[C@H](C[C@H](C[C@H](C[C@H](C[C@H](C[C@H](C[C@H](C[C@H](C[C@H](C[C@H](CCCCC)OC)OC)OC)OC)OC)OC)OC)OC)OC)OC	> 100 µM
NC1(c2cc3ccccc3s2)CCCC1	34.4 µM
C/C(CCn1[nH]c(=O)ccc1=O)=N\NC(=O)C(=O)NN	> 100 µM
Cc1ccc(-c2csc(=Nc3ccccc3)n2NC(=O)c2ccncc2)cc1	75.8 µM

Each compound was assayed on RXF 393 renal (assay: growth of human tumour cells (NCI), 48 h).

Structure (SMILES)	TGI
O=C(/C=C/c1ccccc1)C[C@@H](O)C[C@@H]1CC=CC(=O)O1	> 23 µM
Cc1ccc(/C=C/C(=O)c2cccc3ccccc23)cc1	26.2 µM
C=CC[C@H](C[C@H](C[C@H](C[C@H](C[C@H](C[C@H](C[C@H](C[C@H](C[C@H](C[C@H](CCCCC)OC)OC)OC)OC)OC)OC)OC)OC)OC)OC	> 100 µM
NC1(c2cc3ccccc3s2)CCCC1	> 100 µM
C/C(CCn1[nH]c(=O)ccc1=O)=N\NC(=O)C(=O)NN	> 100 µM
Cc1ccc(-c2csc(=Nc3ccccc3)n2NC(=O)c2ccncc2)cc1	> 100 µM

What follows are compounds tested on RXF-631 renal (assay: growth of human tumour cells (NCI), 48 h).

Structure (SMILES)	TGI
C/C(CCn1[nH]c(=O)ccc1=O)=N\NC(=O)C(=O)NN	> 100 µM

These compounds were tested on SF-268 CNS (assay: growth of human tumour cells (NCI), 48 h).

Structure (SMILES)	TGI
O=C(/C=C/c1ccccc1)C[C@@H](O)C[C@@H]1CC=CC(=O)O1	27.7 µM
Cc1ccc(/C=C/C(=O)c2cccc3ccccc23)cc1	33.1 µM
N#C/C(=C1/Sc2c(nc[nH]c2=O)N1c1ccccc1)c1nc2ccccc2[nH]1	> 100 µM
C=CC[C@H](C[C@H](C[C@H](C[C@H](C[C@H](C[C@H](C[C@H](C[C@H](C[C@H](C[C@H](CCCCC)OC)OC)OC)OC)OC)OC)OC)OC)OC)OC	> 100 µM
NC1(c2cc3ccccc3s2)CCCC1	> 100 µM
C/C(CCn1[nH]c(=O)ccc1=O)=N\NC(=O)C(=O)NN	> 100 µM
Cc1ccc(-c2csc(=Nc3ccccc3)n2NC(=O)c2ccncc2)cc1	> 100 µM

Each compound was assayed on SF-295 CNS (assay: growth of human tumour cells (NCI), 48 h).

Structure (SMILES)	TGI
O=C(/C=C/c1ccccc1)C[C@@H](O)C[C@@H]1CC=CC(=O)O1	28 µM
Cc1ccc(/C=C/C(=O)c2cccc3ccccc23)cc1	31.7 µM
N#C/C(=C1/Sc2c(nc[nH]c2=O)N1c1ccccc1)c1nc2ccccc2[nH]1	> 100 µM
C=CC[C@H](C[C@H](C[C@H](C[C@H](C[C@H](C[C@H](C[C@H](C[C@H](C[C@H](C[C@H](CCCCC)OC)OC)OC)OC)OC)OC)OC)OC)OC)OC	> 100 µM
NC1(c2cc3ccccc3s2)CCCC1	> 100 µM
C/C(CCn1[nH]c(=O)ccc1=O)=N\NC(=O)C(=O)NN	> 100 µM
Cc1ccc(-c2csc(=Nc3ccccc3)n2NC(=O)c2ccncc2)cc1	74.9 µM

These compounds were tested on SF-539 CNS (assay: growth of human tumour cells (NCI), 48 h).

Structure (SMILES)	TGI
O=C(/C=C/c1ccccc1)C[C@@H](O)C[C@@H]1CC=CC(=O)O1	14.9 µM
N#C/C(=C1/Sc2c(nc[nH]c2=O)N1c1ccccc1)c1nc2ccccc2[nH]1	> 100 µM
C=CC[C@H](C[C@H](C[C@H](C[C@H](C[C@H](C[C@H](C[C@H](C[C@H](C[C@H](C[C@H](CCCCC)OC)OC)OC)OC)OC)OC)OC)OC)OC)OC	> 100 µM
NC1(c2cc3ccccc3s2)CCCC1	45.3 µM
C/C(CCn1[nH]c(=O)ccc1=O)=N\NC(=O)C(=O)NN	> 100 µM
Cc1ccc(-c2csc(=Nc3ccccc3)n2NC(=O)c2ccncc2)cc1	> 100 µM

These compounds were tested on SK-MEL-2 melanoma (assay: growth of human tumour cells (NCI), 48 h).

Structure (SMILES)	TGI
O=C(/C=C/c1ccccc1)C[C@@H](O)C[C@@H]1CC=CC(=O)O1	33.9 µM
Cc1ccc(/C=C/C(=O)c2cccc3ccccc23)cc1	32.6 µM
N#C/C(=C1/Sc2c(nc[nH]c2=O)N1c1ccccc1)c1nc2ccccc2[nH]1	> 100 µM
C=CC[C@H](C[C@H](C[C@H](C[C@H](C[C@H](C[C@H](C[C@H](C[C@H](C[C@H](C[C@H](CCCCC)OC)OC)OC)OC)OC)OC)OC)OC)OC)OC	> 100 µM
NC1(c2cc3ccccc3s2)CCCC1	> 100 µM
C/C(CCn1[nH]c(=O)ccc1=O)=N\NC(=O)C(=O)NN	> 100 µM
Cc1ccc(-c2csc(=Nc3ccccc3)n2NC(=O)c2ccncc2)cc1	96.1 µM
